Reference: patent US20240208950A1, “COMPOSITIONS AND METHODS FOR TREATMENT OF CERVICAL AND OVARIAN CANCER” (SOUTH DAKOTA BOARD OF REGENTS, priority 2021, published 2024)

Assays:
β-catenin in SiHa cells = assay: Western blot of β-catenin in nuclear and cytoplasmic extracts, SiHa; type: cell-based, human; details: 15 μM, 24 hours
Method: In the Example shown at FIGS. 9A-9E, cells were subjected to treatment with 15 μM concentration of ORM-Br for 24 hours, nuclear extracts were prepared and western blot analysis were used to detect the protein levels of β-catenin. […] Western blots were reprobed with β-actin and Histone H3 antibodies as an internal control.
The nuclear and cytoplasmic lysates were prepared using respective buffers. The cell lysates (40 μg) were subjected to SDS-PAGE and blotted on PVDF membrane. The membranes were further blocked in 5% milk diluted in 1×TBST solution for 1 hour and incubated overnight in primary antibodies. The following day, the membranes were washed and incubated with secondary antibodies for 1 hour, washed again and developed on a UVP system using chemi-luminiscent reagents.
The EMT process in a cell is driven by growth factors or other signaling proteins such as Wnt/beta-catenin and extracellular matrix component that may stimulate cellular growth and migration. The effect of Br-ORM on β-catenin signaling was examined.
FIG. 15. Effect OF Br-ORM on β-catenin signaling and molecular docking of Br-ORM with β-catenin. Effect of Br-ORM on β-catenin distribution in cytoplasm and nucleus of CaSki and SiHa cells. […] Effect of Br-ORM on β-catenin localization in CaSki cells as determined by confocal microscopy (FIG. 15B(i)-(ii)). […]

[1] = system: E-cadherin and N-cadherin mRNA in cervical cancer cells; assay: qPCR of E-cadherin and N-cadherin; type: cell-based, human; details: both cervical cancer cells, 18 hours
Method: RNA from cervical cancer cells was isolated using Qiagen kit and quantified using NanoDrop instrument 2000 (Thermo Scientific, Waltham, MA, USA). To analyze the expression of miR-200a in control and Br-ORM treated cells, 100 ng total RNA was reverse transcribed into cDNA using specific primers designed for miRNA analysis (Applied Biosystems, Foster City, CA, USA). The expression of this miRNAs was determined by qRT-PCR using the Taqman PCR master mixture and specific primers designed for detection of mature miRNAs (Applied Biosystems). The expression of miRNA was normalized with the expression of endogenous control, RNU6B.
Epithelial mesenchymal transition (EMT) is the basic characteristic of cancer cells in which epithelial cells undergo morphologic and molecular changes that transform the cells to mesenchymal, highly metastatic (invasive and motile), and drug-resistant phenotypes. […] The effect of Br-ORM treatment on various EMT markers in cervical cancer cells was evaluated. […] The effect of Br-ORM on expression of EMT markers in cervical cancer cells compared to untreated group by use of qPCR analysis was determined. […] Expression of E-cadherin in cervical cancer cells treated with Br-ORM (10 μM) for 18 hours was also determined by immunofluorescence and confocal microscopy. […]
FIG. 14. […] Closure of wound was determined and photographed using phase contrast microscopy. […]

COc1ccc2c(c1)OC(C)(C)C(c1ccc(Br)cc1)C2c1ccc(OCCN2CCCC2)cc1 (stereo not shown) [ORM-Br]
nuclear β-catenin expression (β-catenin in SiHa cells): decrease in expression of nuclear β-catenin
nuclear β-catenin expression (β-catenin in SiHa cells; listed as Br-ORM): inhibited nuclear β-catenin
mRNA level of E-cadherin [1]: significantly elevated
mRNA level of N-cadherin [1]: significantly reduced
